Reference: article PMC5093939, “Teicoplanin-based antimicrobial therapy in Staphylococcus aureus bone and joint infection: tolerance, efficacy and experience with subcutaneous administration” (BMC Infectious Diseases, 2016)
Like-named read-outs stand apart in the source and are kept apart here. Marks after values point to notes of the source that are not given here.

Columns and labels:
[1] = Teicoplanin-related adverse events (CTCAE) and their determinants; parameters: species or system human; details: in vivo
From the text: Teicoplanin-related adverse events (AE) occurring during follow-up were notified and classified according to the Common Terminology Criteria for Adverse Events (CTCAE, National Cancer Institute, 2003). Teicoplanin accountability in the AE occurrence was left to the clinician appreciation, with the help of a pharmacovigilance specialist in doubtful cases.

[2] = in vivo
From the text: Patients diagnosed with staphylococcal BJI were identified by cross-referencing the prospective maintained databases of the regional referral center for BJI and the bacteriology laboratory, which list exhaustively all strains isolated from osteoarticular samples since 2001. Patients with diabetic foot- and decubitus ulcer-related BJI were excluded, as they require a specific management. If patients presented more than one osteoarticular infected site, they were considered as independent events for cohort description and outcome analysis, but pooled for tolerance and pharmacologic evaluation. For each patient, data were collected from medical records, nursing charts and biological software in an anonymous standardized case report form.
A Cmin >15 mg/L was taken as an acceptable therapeutic target. Patients with a Cmin >25 mg/L were considered as overexposure.
For intravenous (IV) administration, each dose was diluted in 100 mL of isotonic saline solution and administrated over a 30-min period. For subcutaneous (SC) injections, each dose was diluted in 50 mL of isotonic saline solution and delivered by a nurse during a 30- to 60-min gravity infusion using a butterfly disposable needle.
Descriptive statistics were used to estimate the frequencies of the study variables, described as percentages (%) for dichotomous variables, and medians (interquartile range (IQR)) for continuous variables. For the percentage calculation of each variable, the number of missing values was excluded from the denominator. Non-parametric statistical methods were used to compare the study groups (Chi-squared test, Fisher exact test and Mann–Whitney U test), as appropriate. […] Clinically pertinent variables with a p-value <0.15 in the univariate analysis were included in the final multivariate models. A value of p <0.05 was considered as significant. All analyses were performed using SPSS software version 19.0 (SPSS, Chicago, IL).

[3] = ref 12 (LeFrock et al), cited from earlier work
From the text: These current difficulties in the field of BJI explain the limited and controversial data available on the efficacy of teicoplanin in staphylococcal BJI. In past studies, treatment success rate ranged from 53 to 91 % [11–14]. The low success rate observed in our study (60 %) may be explained by several factors. First, there is a significant selection bias as patients were recruited in a reference center dedicated to manage complex BJI with a high-risk of failure. In addition, most of past studies included native BJI with a relatively short follow-up (<1 year). Finally, pharmacodynamics par ...

[4] = cited from earlier work
From the text: However, the incidence of AE was probably been underestimated due to the retrospective nature of our study (memory bias for non-severe AE). Indeed, in the prospective study of LeFrock et al, the rate of AE was 35 %, requiring discontinuation of treatment in 17 % of the cases. […] The retrospective design may result in underestimating non-serious AE such as injection site reactions.

S. aureus isolates = assay: Susceptibility of staphylococcal isolates to teicoplanin; format: cell-based, Staphylococcus aureus; details: all S. aureus isolates of the 65 episodes (MRSA 16.9 %); exact MIC not available; breakpoints ref 23
[5] = test system: Staphylococcus aureus bone and joint infection; assay: Outcome (treatment failure) of teicoplanin-treated S. aureus bone and joint infection and its determinants; format: in vivo, human
From the text: BJI diagnosis was based upon the existence of clinical and biological evidences of infection, and at least one reliable bacteriological sample positive for S. aureus (i.e., percutaneous joint fluid aspiration, surgical sample, and/or blood culture). BJI were classified according to: i) the existence of orthopedic implant (i.e. joint prosthesis, peripheral or vertebral osteosynthesis); and ii) progression of infection, differentiating acute (≤3 weeks) versus chronic (>3 weeks) infection, calculated from the presumed date of inoculation (i.e., date of device implantation for postoperative orthopaedic device-related infection (ODI), or date of symptom onset for native BJI) up to diagnosis.
Treatment failure was defined as persisting infection under appropriate antimicrobial therapy, relapse after the interruption of antimicrobial therapy, necessity of surgical revision on the account of persisting septic focus ≥5 days after the first intervention, superinfections, and/or fatal outcome if BJI-related.

teicoplanin
Number of cutaneous rashes [1]: 5 | Number of episodes of headache [1]: 1 | Number of pancytopenia [1]: one | OR (95%CI) of teicoplanin-related adverse event: administration route switch [1]: 0.221 (0.023-2.124) | OR (95%CI) of teicoplanin-related adverse event: delay for Cmin >15 mg/L (days) [1]: 1.019 (0.769-1.351) | OR (95%CI) of teicoplanin-related adverse event: initial Cmin (day 3 to 5, mg/L) [1]: 0.818 (0.656-1.020) | OR (95%CI) of teicoplanin-related adverse event: initial Cmin <15 mg/L [1]: 2.037 (0.213-19.494) | OR (95%CI) of teicoplanin-related adverse event: loading dose (mg/kg/12h) [1]: 1.850 (0.001-4228.586)^b | OR (95%CI) of teicoplanin-related adverse event: loading dose given [1]: 0.889 (0.091-8.646) | OR (95%CI) of teicoplanin-related adverse event: maintenance dose (mg/kg/24h) [1]: 5.150 (0.004-6359.356)^b | OR (95%CI) of teicoplanin-related adverse event: number of loading injections [1]: 0.870 (0.559-1.354) | Resolution of AE [1]: Yes | OR (95%CI) of teicoplanin-related adverse event: IV route ([1]; iv): 0.571 (0.093-3.508) | Teicoplanin-related AE ([1]; iv): 4 (8.7 %) | Teicoplanin-related AE ([1]; sc): 2 (14.3 %) | Patients obtaining Cmin >15 mg/L within the first 2 weeks of treatment [2]: 66.1% | Subcutaneous versus intravenous route: pharmacokinetics and tolerance [2]: no difference | Delay for Cmin >15 mg/L ([2]; iv): 9 (6–13) days | Initial Cmin <15 mg/L ([2]; iv): 29 (74.4 %) | Initial Cmin >25 mg/L ([2]; iv): 0 (0 %) | Overdose (day 1 to 14), Cmin >25 mg/L ([2]; iv): 8 (16.0 %) | Delay for Cmin >15 mg/L ([2]; sc): 7 (4.5–9.5) days | Initial Cmin <15 mg/L ([2]; sc): 7 (70.0 %) | Initial Cmin >25 mg/L ([2]; sc): 0 (0 %) | Overdose (day 1 to 14), Cmin >25 mg/L ([2]; sc): 2 (14.3 %) | Cmin ([3]; average after 6 days, 6 mg/kg/day after 5 loading doses of 6 mg/kg/12 h): 10000 ng/mL | Cmin ([3]; average from the third day, 12 mg/kg/day after 5 loading doses of 12 mg/kg/12 h): 20000 ng/mL | Risk of toxicity with dose increase ([4]; dose increase from 400 to 600 mg/day): not associated with an increased risk of toxicity | Severe local reaction (grade ≥3) ([4]; prospective evaluation of SC teicoplanin in 30 patients, ref 29 (El Samad et al)): no severe local reaction | Susceptibility of staphylococcal isolates (S. aureus isolates): susceptible | Influence of administration route on outcome ([5]; IV versus SC, treatment failure analysis): did not influence the outcome | Limb amputations ([5]; among iterative surgical procedures, 65 episodes): two
